In patent publication US20100075854A1, “HERBICIDE COMBINATION COMPRISING DIMETHOSXYTRIAZINYL-SUBSTITUTED DIFLUOROMETHANESULFONYLANILIDES” (Bayer CropScience AG, priority 2008, published 2010):
Where two headings read alike, the source gives them in different places.

Experiments:
Assay in all cases: Post-emergence action, greenhouse pot test, visual scoring
Assay type in all cases: in vivo
[1] = test system: Abuthilon theophrasti (ABUTH); conditions: Abutilon theophrasti, ABUTH, read-out: % activity found; for inhibition at 4 g/ha: 4 g of ai/ha; for inhibition at 12 g/ha: 12 g of ai/ha
Method: (§1) Seeds or rhizome pieces of mono- and dicotyledonous harmful and useful plants were placed in peat pots (diameter 4 cm) filled with sandy loam and then covered with soil. The pots were kept in a greenhouse under optimum conditions. In addition, harmful plants encountered in paddy rice cultivation were cultivated in pots with a water level 2 cm above the soil surface.
(§2) About three weeks after the start of the cultivation, the test plants were treated at the 2- to 3-leaf stage. The herbicides, formulated as powder or liquid concentrates, were, either alone or in the combinations according to the invention, sprayed in various dosages on to the green parts of the plants using an application rate of 600 l of water/ha (converted). For further cultivation of the plants, the pots were then again kept under optimum conditions in a greenhouse.
(§3) The visual scoring of the herbicidal effects was carried out in intervals up to 21 days after the treatment. Scoring was carried out in percent in comparison to the untreated control plants. 0%=no herbicidal activity, 100%=complete herbicidal activity=complete kill.
(§4) The percentages from the treatments with the herbicides alone (=individual application) and with the combinations according to the invention (=mixtures) were employed to calculate interactions using the method of Colby. When the observed efficacies of the mixtures exceed the formal sum of the values of the tests with individual applications, they also exceed the expected value according to Colby, which is calculated using the formula below (cf. S. R. Colby; in Weeds 15 (1967) pp. 20 to 22):
(§5) • A, B=activity of components A and B in percent at a dosage of a and b g of ai/ha (=gramm of active substance per hectare), respectively. • E=expected value in % at a dosage of a+b g of ai/ha.

[2] = test system: Alopecurus myosuroides (ALOMY); conditions: 504 h, ALOMY, 21 DAT, read-out: % activity found
Method: as §1, §2, §3, §4, §5

[3] = test system: Amaranthus retroflexus (AMARE); conditions: AMARE, read-out: % activity found; for inhibition at 12 g/ha: 12 g of ai/ha
Method: as §1, §2, §3, §4, §5

Avena fatua (AVEFA) = conditions: AVEFA, read-out: % activity found; for inhibition at 4 g/ha: 4 g of ai/ha; for inhibition at 12 g/ha: 12 g of ai/ha
Method: as §1, §2, §3, §4, §5

[4] = test system: Cyperus esculentus (CYPES); conditions: CYPES, 21 DAT
Method: as §1, §2, §3, §4, §5

[5] = test system: Fallopia (ex Polygonum) convolvulus (POLCO); conditions: POLCO, read-out: % activity found; for inhibition at 4 g/ha: 4 g of ai/ha; for inhibition at 12 g/ha: 12 g of ai/ha
Method: as §1, §2, §3, §4, §5

[6] = test system: Lolium multiflorum (LOLMU); conditions: read-out: % activity found; for inhibition at 4 g/ha: 4 g of ai/ha; for inhibition at 12 g/ha: 12 g of ai/ha
Method: as §1, §2, §3, §4, §5

[7] = test system: Matricaria inodora (MATIN); conditions: Tripleurospermum inodorum, MATIN, read-out: % activity found; for inhibition at 4 g/ha: 4 g of ai/ha
Method: as §1, §2, §3, §4, §5

Oryza sativa (ORYSA) = conditions: ORYSA, read-out: % activity found; for inhibition at 12 g/ha: 12 g of ai/ha
Method: as §1, §2, §3, §4, §5

[8] = test system: Pharbitis purpurea (PHBPU); conditions: Ipomoea purpurea, PHBPU, read-out: % activity found; for inhibition at 4 g/ha: 4 g of ai/ha; for inhibition at 12 g/ha: 12 g of ai/ha
Method: as §1, §2, §3, §4, §5

[9] = test system: Triticum aestivum (TRZAS); conditions: TRZAS, read-out: % activity found; for inhibition at 4 g/ha: 4 g of ai/ha; for inhibition at 12 g/ha: 12 g of ai/ha
Method: as §1, §2, §3, §4, §5

Veronica persica (VERPE) = conditions: VERPE, read-out: % activity found; for inhibition at 12 g/ha: 12 g of ai/ha
Method: as §1, §2, §3, §4, §5

Viola tricolor (VIOTR) = conditions: VIOTR, read-out: % activity found; for inhibition at 4 g/ha: 4 g of ai/ha; for inhibition at 12 g/ha: 12 g of ai/ha
Method: as §1, §2, §3, §4, §5

Zea mays (ZEAMX) = conditions: ZEAMX, read-out: % activity found; for inhibition at 4 g/ha: 4 g of ai/ha; for inhibition at 12 g/ha: 12 g of ai/ha
Method: as §1, §2, §3, §4, §5

With COc1nc(OC)nc(C(=O)c2cccc(F)c2N(C)S(=O)(=O)C(F)F)n1 [A-1] the inhibition at 4 g/ha ([1]; 240 h, 10 DAT) was 70%, the inhibition at 12 g/ha ([1]; 240 h, 10 DAT) was 70% and the inhibition at 4 g/ha ([1]; 504 h, 21 DAT) was 85%. For the same compound, the inhibition at 12 g/ha ([1]; 504 h, 21 DAT) was 85%, the inhibition at 4 g/ha ([2]; 4 g of ai/ha) was 40% and the inhibition at 12 g/ha ([2]; 12 g of ai/ha) was 50%. For the same compound, the inhibition at 12 g/ha ([3]; 240 h, 10 DAT) was 70%, the inhibition at 4 g/ha ([3]; 504 h, 21 DAT, 4 g of ai/ha) was 70% and the inhibition at 12 g/ha ([3]; 504 h, 21 DAT) was 75%. For the same compound, the inhibition at 4 g/ha (Avena fatua (AVEFA); 240 h, 10 DAT) was 40%, the inhibition at 12 g/ha (Avena fatua (AVEFA); 240 h, 10 DAT) was 50% and the inhibition at 4 g/ha (Avena fatua (AVEFA); 504 h, 21 DAT) was 10%. For the same compound, the inhibition at 12 g/ha (Avena fatua (AVEFA); 504 h, 21 DAT) was 30%, the “(7) % activity found” value ([4]; (5) dose of A-1 4, alone) was 80% and the “(7) % activity found” value ([4]; (5) dose of A-1 12, alone) was 80%. It also gave an inhibition at 4 g/ha ([4]; Cyperus esculentus, 504 h, 4 g of ai/ha, read-out: % activity found) of 80%, an inhibition at 12 g/ha ([4]; Cyperus esculentus, 504 h, 12 g of ai/ha, read-out: % activity found) of 80% and an inhibition at 4 g/ha ([5]; 240 h, 10 DAT) of 70%. For the same compound, the inhibition at 12 g/ha ([5]; 240 h, 10 DAT) was 70%, the inhibition at 4 g/ha ([5]; 504 h, 21 DAT) was 75% and the inhibition at 12 g/ha ([5]; 504 h, 21 DAT) was 70%. The inhibition at 4 g/ha ([6]; 240 h, 10 DAT) was 0%, the inhibition at 12 g/ha ([6]; 240 h, 10 DAT) was 10% and the inhibition at 4 g/ha ([6]; 504 h, 21 DAT) was 0%. It also gave an inhibition at 12 g/ha ([6]; 504 h, 21 DAT) of 10%, an inhibition at 4 g/ha ([7]; 240 h, 10 DAT) of 60% and an inhibition at 4 g/ha ([7]; 504 h, 21 DAT) of 50%. It also gave an inhibition at 12 g/ha ([7]; 504 h, 21 DAT, 12 g of ai/ha) of 60%, an inhibition at 12 g/ha (Oryza sativa (ORYSA); 240 h, 10 DAT) of 10% and an inhibition at 4 g/ha (Oryza sativa (ORYSA); 504 h, 21 DAT, 4 g of ai/ha) of 0%. For the same compound, the inhibition at 12 g/ha (Oryza sativa (ORYSA); 504 h, 21 DAT) was 10%, the inhibition at 4 g/ha ([8]; 240 h, 10 DAT) was 60% and the inhibition at 12 g/ha ([8]; 240 h, 10 DAT) was 60%. For the same compound, the inhibition at 4 g/ha ([8]; 504 h, 21 DAT) was 60%, the inhibition at 12 g/ha ([8]; 504 h, 21 DAT) was 65% and the inhibition at 4 g/ha ([9]; 240 h, 10 DAT) was 0%. For the same compound, the inhibition at 12 g/ha ([9]; 240 h, 10 DAT) was 0%, the inhibition at 4 g/ha ([9]; 504 h, 21 DAT) was 0% and the inhibition at 12 g/ha ([9]; 504 h, 21 DAT) was 0%. For the same compound, the inhibition at 12 g/ha (Veronica persica (VERPE); 240 h, 10 DAT) was 60%, the inhibition at 4 g/ha (Veronica persica (VERPE); 504 h, 21 DAT, 4 g of ai/ha) was 30% and the inhibition at 12 g/ha (Veronica persica (VERPE); 504 h, 21 DAT) was 40%. The inhibition at 4 g/ha (Viola tricolor (VIOTR); 240 h, 10 DAT) was 20%, the inhibition at 12 g/ha (Viola tricolor (VIOTR); 240 h, 10 DAT) was 20% and the inhibition at 4 g/ha (Viola tricolor (VIOTR); 504 h, 21 DAT) was 0%. It also gave an inhibition at 12 g/ha (Viola tricolor (VIOTR); 504 h, 21 DAT) of 10%, an inhibition at 4 g/ha (Zea mays (ZEAMX); 240 h, 10 DAT) of 0% and an inhibition at 12 g/ha (Zea mays (ZEAMX); 240 h, 10 DAT) of 0%. For the same compound, the inhibition at 4 g/ha (Zea mays (ZEAMX); 504 h, 21 DAT) was 0% and the inhibition at 12 g/ha (Zea mays (ZEAMX); 504 h, 21 DAT) was 0%.
